Data: patent publication US10780067B2, “Endoxifen for local transdermal therapy to the breast” (Northwestern University, priority 2016, dated 2020)

What was measured:
von Willebrand factor = test: Plasma von Willebrand factor immuno-turbidimetric assay, presurgical trial; format: in vivo, human; conditions: mean ± SD
Protocol: Plasma samples collected with anticoagulant K3-EDTA were used for human IGF-1 and SHBG assays, and coagulation protein assays (factor VIII, factor IX, von Willebrand factor, and protein S)[23]. The human IGF-1 and SHBG assays were performed with Quantikine Enzyme-linked immunosorbent assay (ELISA) Kits (R&D Systems, Cat # DG100 for IGF-1, and Cat # DSHBGO for SHBG assay). The lower limit of detection was 56 pg/ml, and 5 pmol/L; % CV values were 4.3 and 5.6 for IGF-1, and SHBG assay, respectively. Factor VIII, and factor IX were determined with VisuLize™ antigen ELISA kits (Affinity Biologicals Inc.). von Willebrand factor was measured with immune-turbidimetric assay (Diagnostica Stago Inc. Cat #00518) by STAR analyzer, and total protein S was assayed with an ELISA kit (REAADSR Inc.)

maspin = test: Maspin expression (H score) by immunohistochemistry, presurgical trial; format: in vivo, human; conditions: mean ± SD
Protocol: (§1) Assessments similar to those performed at baseline were repeated on the day prior to, or on the morning of surgery. During surgery, breast adipose tissue from the surgical sample was snap frozen and stored at −80° C. for measurement of tamoxifen and metabolites. The samples were obtained from a location adjacent to the DCIS lesion to provide uniformity between participants undergoing breast conservation and mastectomy. The paraffin block of the core and excision samples were acquired by the recruiting institution and 10 sections from each specimen were submitted to the NU Pathology Core Facility. The sections were cut in batches (with pre- and post-treatment samples in the same batch), shipped cold, and processed for immunohistochemistry within four weeks.
(§2) Secondary endpoints were 1) to compare concentrations of tamoxifen and its metabolites [4-OHT, endoxifen, N-desmethyl tamoxifen (NDT)] in breast tissue, plasma and NAF obtained on the day of surgery; 2) to assess changes in known tamoxifenmodulated pathways in the breast (COX-2 and maspin protein expression, [19,20]) and plasma (SHBG, IGF-1 [14]). Side effect endpoints were 1) the incidence of hot flashes at baseline and before surgery; 2) changes in coagulation related proteins in women on the gel and the oral arms from baseline to immediately before surgery.
Immunohistochemical (IHC) assessment of these markers was performed on paraffin embedded sections of the core and excision specimens, using standard IHC techniques and MCF7, HCT116 and H292 cells as controls. For maspin we used primary mouse monoclonal antibody (Clone-G167-70,BD Pharmingen, San Jose, Calif.), dilution 1:200; for COX-2, primary mouse monoclonal antibody (Clone-CX-294, Dako, Denmark), dilution 1:100-; and for Ki67, primary mouse monoclonal antibody (Clone-MIB-1, Dako, Denmark), dilution 1:100-antigen. Dako Envision Plus system HRP labeled polymer for 20 min at 37° C. was used as the detection system. […] The Ki67 LI was assessed on an average of 300 DCIS cells at 40× magnification. […]

MCF7 xenograft = conditions: simulation using human PK; cited from earlier work
DCIS lesions = test: Ki-67 labeling index by immunohistochemistry, phase II presurgical trial of 4-OHT gel vs oral tamoxifen; format: in vivo, human; conditions: for Ki-67 baseline: Ki-67 LI of DCIS lesions before treatment
Description: Women at risk for thromboembolic disease were excluded, as were those with a history of exogenous hormone use within the past month, and tamoxifen or raloxifene use within the past two years. Randomization was stratified by menopausal status, and enrollment site. Initially, the FDA required exclusions for grade 3 and comedo-type DCIS, mammographic DCIS size of >5 cm, and palpable lesions; these were removed following enrollment of nine subjects in the first year.
All participants provided informed consent. Baseline assessments included a history and physical, explanation of gel application, completion of the Breast Cancer Prevention Trial Eight Symptom Scale (BESS) questionnaire, collection of a venous blood sample, and collection of nipple aspirate fluid (NAF) from NAF yielders. […] Treatment began within 5 days post-randomization and ended on the day prior to surgical resection. Participants were instructed to apply the gel to the entire skin envelope of each breast each morning, after a shower. Duration of therapy was 6-10 weeks. Compliance was assessed through participant diaries, counts of returned pills and of returned gel canisters. Participants who took at least 80% of the prescribed dose were considered compliant.
as §1, §2
Immunohistochemical (IHC) assessment of these markers was performed on paraffin embedded sections of the core and excision specimens, using standard IHC techniques and MCF7, HCT116 and H292 cells as controls. For maspin we used primary mouse monoclonal antibody (Clone-G167-70,BD Pharmingen, San Jose, Calif.), dilution 1:200; for COX-2, primary mouse monoclonal antibody (Clone-CX-294, Dako, Denmark), dilution 1:100-; and for Ki67, primary mouse monoclonal antibody (Clone-MIB-1, Dako, Denmark), dilution 1:100-antigen. Dako Envision Plus system HRP labeled polymer for 20 min at 37° C. was used as the detection system. Scoring was performed on DCIS lesions only, with manual counting of positively stained DCIS cells. The Ki67 LI was assessed on an average of 300 DCIS cells at 40× magnification. The H score system (Score range: 0-300) was used for COX-2 and maspin markers by a single observer who was blinded to treatment status, with random verification of 20% of slides by a pathologist (PK).

## CC/C(=C(\c1ccccc1)c1ccc(OCCN(C)C)cc1)c1ccccc1 [Tamoxifen, (Z)-tamoxifen]
Von Willebrand factor; plasma after 6-10 weeks
  % vWF post-treatment: 218.6 ± 134.6%
Von Willebrand factor; plasma before treatment
  % vWF baseline: 167.4 ± 89.2%
Von Willebrand factor; plasma
  % vWF Changes from baseline: 51.2 ± 71.0%
maspin; DCIS lesions after 6-10 weeks
  Maspin post-treatment: 142 ± 69 H-score
maspin; DCIS lesions before treatment
  Maspin baseline: 107 ± 56 H-score
maspin; DCIS lesions, 6-10 weeks
  Maspin Changes from baseline: 35 ± 71 H-score
MCF7 xenograft
  TGI at day 21, 20 mg/day oral: 63%
DCIS lesions; Ki-67 LI of DCIS lesions after 6-10 weeks, mean ± SD
  Ki-67 post-treatment: 3.2 ± 2.3%
DCIS lesions; mean ± SD
  Ki-67 baseline: 8.3%
DCIS lesions; mean ± SD, listed as Oral-T
  Ki-67 baseline: 8.3 ± 5.2%
DCIS lesions; Ki-67 LI of DCIS lesions, 6-10 weeks, mean ± SD
  Ki-67 Changes from baseline: −5.1 ± 5.5%
DCIS lesions; decrease from baseline in DCIS lesions, 6-10 weeks
  mean reduction of Ki-67 LI post-therapy: 5.1%
DCIS lesions; relative decrease, DCIS lesions
  drop in Ki67-LI relative to baseline: 61%
